From PubChem BioAssay AID1963964 (Molecular Pharmacology Branch, DTP, NCI, 2024)
Where “and” joins values, the source holds several entries; their conditions need not be identical. Equal entries are not always repeated.

Test system: 997726-040-R-J2-PDC tumor spheroids, viability
Experiment: Anticancer human tumor 997726-040-R-J2-PDC patient-derived squamous cell lung carcinoma cell line growth inhibition [PI3K]
Settings: spheroids with HUVEC and MSC; for viability, T/C: stronger effect = lower value; for IC50: curve of compound
Source text: Combinatorial screen of targeted agents with the PI3K inhibitors inavolisib, alpelisib, duvelisib, and copanlisib in multi-cell type tumor spheroids
A high-throughput screen of multi-cell type tumor spheroids was designed to identify active combinations of targeted small molecules and PI3K pathway inhibitors. Complex spheroids include a stromal component modeled by human endothelial cells (HUVEC) and fibroblasts modeled by human mesenchymal stem cells (MSCs). The concentration ranges selected for each drug and investigational agent were based upon clinically achievable concentrations if the clinical Cmax of the agent was known.
Compounds. The drugs and investigational agents: inavolisib (NSC800729), alpelisib (NSC765974), duvelisib (NSC772469), copanlisib (NSC816437), ipatasertib (NSC767898), afuresertib (NSC778305), talazoparib (NSC767125), sapanisertib (NSC764658), selumetinib (NSC741078), tovorafenib (DAY101, NSC766906), vemurafenib (NSC761431), ravoxertinib (NSC781343), sotorasib (NSC818433), MRTX1133 (NSC 836407), abemaciclib (NSC 768073), palbociclib (NSC758247), venetoclax (NSC 766270), SY5609 (NSC837396), enzalutamide (NSC755605), and darolutamide (NSC825331), were obtained from the National Cancer Institute (NCI) Developmental Therapeutics Program Chemical Repository. The FDA-approved anticancer drug set is available from the NCI Developmental Therapeutics Program. […] The stock solutions were prepared in dimethyl sulfoxide (DMSO, Sigma-Aldrich, St. Louis, MO, cat. D2650) at 800-fold the tested concentration and stored at -70 degrees C prior to their use. All drugs and investigational agents were tested over a range starting from a high concentration at or near the clinical Cmax and decreasing in half-log increments. If the clinical Cmax for an agent had not been determined, the highest concentration tested was 10 microM.
Cell Culture. All cells were maintained in an incubator at 37 degrees C and 5% CO2 with 95% humidity. The PDC lines were cultured according to standard operating procedures established by the NCI PDMR (https://pdmr.cancer.gov/sops/default.htm). All PDCs were thawed and cultured in Matrigel-coated flasks prepared with a working solution of 1X Ham's F-12 nutrient mix, without supplementation (Invitrogen, Waltham, MA, cat. 11765054), 100 U/mL penicillin-streptomycin (Invitrogen, cat. 15140122), and 2.5% Matrigel (Corning Inc., Corning, NY, cat. 354248) for the first three passages. The 354836-022-R-J1-PDC, 475296-252-R-J1-PDC, and 997726-040-R-J2-PDC lines were cultured in 6A media, which includes advanced DMEM/F-12 (Thermo Fisher Scientific, cat. 12634028), 10 mM HEPES (Thermo Fisher Scientific, cat. 15630080), 1X GlutaMAX supplement (Thermo Fisher Scientific, cat. 35050061), 0.1 mg/mL primocin (InvivoGen, San Diego, CA, cat. ant-pm-2), 10% defined fetal bovine serum, heat inactivated (HyClone Laboratories Inc., Logan, UT, cat. SH30070.03HI), 50% L-WRN conditioned media (ATCC, cat. CRL-3276), 1.25 mM N-Acetyl-L-cysteine (Sigma-Aldrich, cat. A9165), 10 mM nicotinamide (Sigma-Aldrich, cat. N0636), 1X B-27 supplement (Thermo Fisher Scientific, cat. 17504044), 1X N-2 supplement (Thermo Fisher Scientific, cat. 17502048), and 10 microM Y-27632 dihydrochloride (Tocris Bioscience, Bristol, United Kingdom, cat. 1254). The 624824-186-R-J2-PDC line was cultured in 6C/Colon 1B media, which includes all 6A media components plus 50 ng/mL human EGF recombinant protein (Thermo Fisher Scientific, cat. PHG0311). […]
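Note: spheroids exposed to compounds for seven days before readout.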

Compound	viability, T/C (compound 0.0316 µM)	viability, T/C (compound 0.1 µM)	viability, T/C (compound 0.316 µM)	viability, T/C (compound 1 µM)	viability, T/C (compound 3.16 µM)	viability, T/C (compound 10 µM)	IC50
C#Cc1c(F)ccc2cc(O)cc(-c3ncc4c(N5CC6CCC(C5)N6)nc(OCC56CCCN5CC(F)C6)nc4c3F)c12 (stereo not given)	105% [middle of 4 runs]	96% [middle of 4 runs]	96.5% [middle of 4 runs]	96.6% [middle of 4 runs]	92.6% [middle of 4 runs]	77.5% [middle of 4 runs]	> 10 µM
C=CC(=O)N1CCN(c2nc(=O)n(-c3c(C)ccnc3C(C)C)c3nc(-c4c(O)cccc4F)c(F)cc23)C(C)C1 (stereo not given)	105% [middle of 4 runs]	91.2% and 100% (2×) and 96.7%	109% [middle of 4 runs]	109% [middle of 4 runs]	126% [middle of 4 runs]	122% [middle of 4 runs]	> 10 µM
CC(Cn1ccc(-c2ccc(C#N)c(Cl)c2)n1)NC(=O)c1cc(C(C)O)[nH]n1 (stereo not given)	101% [middle of 4 runs]	103% [middle of 4 runs]	105% [middle of 4 runs]	100% [middle of 4 runs]	107% [middle of 4 runs]	96.3% [middle of 4 runs]	> 10 µM
CC1(C)CCC(CN2CCN(c3ccc(C(=O)NS(=O)(=O)c4ccc(NCC5CCOCC5)c([N+](=O)[O-])c4)c(Oc4cnc5[nH]ccc5c4)c3)CC2)=C(c2ccc(Cl)cc2)C1	98.4% [middle of 4 runs]	95.7% [middle of 4 runs]	–	102% [middle of 4 runs]	98.8% [middle of 4 runs]	42.4% [middle of 4 runs]	8.5 µM [middle of 4 runs]
CC1(C)CCC(Nc2ncc(C(F)(F)F)c(-c3c[nH]c4c(P(C)(C)=O)c(C#N)ccc34)n2)CN1 (stereo not given)	45.6% [middle of 4 runs]	42.6% [middle of 4 runs]	48% [middle of 4 runs]	44% [middle of 4 runs]	–	23.3% [middle of 4 runs]	–
CCCS(=O)(=O)Nc1ccc(F)c(C(=O)c2c[nH]c3ncc(-c4ccc(Cl)cc4)cc23)c1F	103% [middle of 4 runs]	106% [middle of 4 runs]	104% (2×) and 114% and 126%	131% [middle of 4 runs]	–	27.6% [middle of 4 runs]	7.12 µM and 7.36 µM and 7.32 µM
CNC(=O)c1ccc(N2C(=S)N(c3ccc(C#N)c(C(F)(F)F)c3)C(=O)C2(C)C)cc1F	109% [middle of 4 runs]	95.3% [middle of 4 runs]	97% [middle of 4 runs]	93.3% [middle of 4 runs]	108% [middle of 4 runs]	95.8% [middle of 4 runs]	> 10 µM
C[C@@H](NC(=O)c1ncnc(N)c1Cl)c1ncc(C(=O)Nc2cc(C(F)(F)F)c(Cl)cn2)s1	–	125% [middle of 4 runs]	117% [middle of 4 runs]	110% [middle of 4 runs]	105% [middle of 4 runs]	73.3% [middle of 4 runs]	> 10 µM
Cn1ncc(Cl)c1-c1cc(C(=O)NC(CN)Cc2cccc(F)c2)sc1Cl (stereo not given)	84.3% [middle of 4 runs]	46.1% [middle of 4 runs]	27.1% [middle of 4 runs]	12.9% [middle of 4 runs]	9.41% [middle of 4 runs]	12.4% [middle of 4 runs]	92.5 nM [middle of 4 runs]
Cn1nccc1Nc1nccc(-c2ccn(C(CO)c3ccc(Cl)c(F)c3)c(=O)c2)n1 (stereo not given)	93.2% [middle of 4 runs]	78.7% [middle of 4 runs]	73.9% [middle of 4 runs]	61.8% [middle of 4 runs]	61.6% [middle of 4 runs]	58.1% [middle of 4 runs]	> 10 µM
